Laboratory results from publication PMC7882986, “Simultaneous blocking of the pan‐RAF and S100B pathways as a synergistic therapeutic strategy against malignant melanoma” (Journal of Cellular and Molecular Medicine, 2020).

Tested on: p53 transcription activity
Experiment: p53 luciferase reporter assay in A375 cells
Assay type: cell-based, human
Details: 0.5 μM alone, 12 h
Experimental: Transient transfection: A375 cells were seeded in a culture dish overnight before transfection. p53-luciferase plasmid, and TurboFect reagent were mixed together in Dulbecco's modified eagle medium (DMEM) without FBS and the resulting solution was incubated for 20 min at 37 °C. The mixture was then added to the A375 cells in the wells. The cells were incubated for 12 h at 37 °C in a CO2 incubator before use.
Briefly, A375 cells were seed at a density of 6 × 10^5 cell in a culture dish overnight. The cells were co-transfected with p53-luciferase plasmid in serum-free DMEM medium using TurboFect Transfection Reagent. Then, the transfected cells were seeded in a 24-well plate and treated with an indicated concentration of 1 in 1% FBS medium for 6h. The transfected cells were lysed by the addition of 160 μL Passive Lysis Buffer (PLB). 50 μL of the cell lysates were transferred to a 96-well white plate followed by adding 50 μL of luciferase reporter reagent (LAR). The transcriptional activity was determined by measuring the activity of firefly luciferase in SpectraMax M5 microplate reader (Molecular Devices).

## CCCS(=O)(=O)Nc1ccc(F)c(C(=O)c2c[nH]c3ncc(-c4ccc(Cl)cc4)cc23)c1F [vemurafenib, reference compound]
  p53 transcription activity, single agent: negligible effect
